Experimental data: ChEMBL document CHEMBL5291721, “A preclinical secondary pharmacology resource illuminates target-adverse drug reaction associations of marketed drugs” (Nat Commun, 2023)

Key:
[1] = biological target: cGMP-inhibited 3',5'-cyclic phosphodiesterase 3A (Homo sapiens, UniProt Q14432); assay type: functional
[2] = biological target: Gamma-aminobutyric acid receptor subunit alpha-1 (Rattus norvegicus, UniProt P62813); assay type: functional
Histamine H2 receptor = Histamine H2 receptor (Homo sapiens, UniProt P25021); assay type: functional, cell-based
Cannabinoid receptor 1 = Cannabinoid receptor 1 (Homo sapiens, UniProt P21554); assay type: functional, cell-based
[3] = biological target: Kappa-type opioid receptor (Homo sapiens, UniProt P41145)
[4] = biological target: T1, Alpha-2C adrenergic receptor (Homo sapiens, UniProt P18825); assay type: functional
T1 sequence (P18825 whole entry): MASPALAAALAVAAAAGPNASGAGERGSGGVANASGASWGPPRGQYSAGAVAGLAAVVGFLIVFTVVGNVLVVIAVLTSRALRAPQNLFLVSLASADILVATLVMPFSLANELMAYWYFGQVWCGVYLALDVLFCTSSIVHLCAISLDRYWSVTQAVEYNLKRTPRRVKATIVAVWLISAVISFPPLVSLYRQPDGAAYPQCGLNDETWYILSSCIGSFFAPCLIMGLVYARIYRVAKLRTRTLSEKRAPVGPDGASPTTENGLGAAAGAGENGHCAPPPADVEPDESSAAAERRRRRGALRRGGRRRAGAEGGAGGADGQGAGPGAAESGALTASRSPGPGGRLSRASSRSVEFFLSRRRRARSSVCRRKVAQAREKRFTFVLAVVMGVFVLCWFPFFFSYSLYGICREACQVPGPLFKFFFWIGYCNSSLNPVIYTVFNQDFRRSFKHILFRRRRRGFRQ

[5] = biological target: T2, Alpha-2B adrenergic receptor (Homo sapiens, UniProt P18089)
T2 sequence (P18089 whole entry): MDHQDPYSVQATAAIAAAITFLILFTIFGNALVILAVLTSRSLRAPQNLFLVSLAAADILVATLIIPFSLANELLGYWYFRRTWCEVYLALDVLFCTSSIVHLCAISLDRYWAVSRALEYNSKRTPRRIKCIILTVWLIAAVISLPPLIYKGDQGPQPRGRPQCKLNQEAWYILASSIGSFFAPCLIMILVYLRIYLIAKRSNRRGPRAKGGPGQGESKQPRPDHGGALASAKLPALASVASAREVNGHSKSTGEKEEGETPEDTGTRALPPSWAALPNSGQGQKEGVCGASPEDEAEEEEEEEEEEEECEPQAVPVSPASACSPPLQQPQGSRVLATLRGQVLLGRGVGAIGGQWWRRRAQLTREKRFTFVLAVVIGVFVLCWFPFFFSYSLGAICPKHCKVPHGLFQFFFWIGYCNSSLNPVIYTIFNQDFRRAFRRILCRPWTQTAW

[6] = biological target: 5-hydroxytryptamine receptor 2B (Homo sapiens, UniProt P41595); assay type: functional, cell-based
[7] = biological target: T3, 5-hydroxytryptamine receptor 1A (Homo sapiens, UniProt P08908); assay type: functional, cell-based
T3 sequence (P08908 whole entry): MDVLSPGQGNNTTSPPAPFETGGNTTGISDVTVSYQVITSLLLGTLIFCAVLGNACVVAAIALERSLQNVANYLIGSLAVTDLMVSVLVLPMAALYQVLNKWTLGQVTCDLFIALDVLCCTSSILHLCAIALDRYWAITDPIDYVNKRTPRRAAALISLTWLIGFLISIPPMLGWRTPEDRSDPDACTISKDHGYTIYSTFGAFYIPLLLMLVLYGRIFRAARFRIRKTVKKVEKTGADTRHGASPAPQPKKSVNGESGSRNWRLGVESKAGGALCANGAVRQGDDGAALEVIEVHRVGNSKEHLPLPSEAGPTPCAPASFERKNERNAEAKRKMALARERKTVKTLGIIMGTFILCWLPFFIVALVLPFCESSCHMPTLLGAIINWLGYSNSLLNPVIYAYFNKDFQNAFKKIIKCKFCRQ

[8] = biological target: T4, Amine oxidase [flavin-containing] A (Homo sapiens, UniProt P21397); assay type: functional
T4 sequence (P21397 whole entry): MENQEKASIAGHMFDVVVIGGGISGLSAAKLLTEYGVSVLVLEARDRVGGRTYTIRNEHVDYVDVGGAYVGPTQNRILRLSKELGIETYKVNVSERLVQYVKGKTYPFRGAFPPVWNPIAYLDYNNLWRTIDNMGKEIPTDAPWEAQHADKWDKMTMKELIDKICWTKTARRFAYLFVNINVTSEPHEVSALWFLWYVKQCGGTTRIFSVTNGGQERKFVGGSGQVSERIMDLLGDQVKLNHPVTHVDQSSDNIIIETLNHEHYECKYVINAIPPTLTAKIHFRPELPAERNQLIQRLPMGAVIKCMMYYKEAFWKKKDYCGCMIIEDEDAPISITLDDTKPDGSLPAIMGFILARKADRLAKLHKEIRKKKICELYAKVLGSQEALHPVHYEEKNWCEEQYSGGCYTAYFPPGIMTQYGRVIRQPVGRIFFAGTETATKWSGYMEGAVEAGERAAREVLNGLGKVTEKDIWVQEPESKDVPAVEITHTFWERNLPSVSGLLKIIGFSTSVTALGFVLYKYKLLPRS

Adenosine receptor A2a = Adenosine receptor A2a (Homo sapiens, UniProt P29274)
[9] = biological target: Sodium-dependent dopamine transporter (Homo sapiens, UniProt Q01959)
[10] = biological target: Sodium-dependent noradrenaline transporter (Homo sapiens, UniProt P23975)
Also: assay procedure not described here.

Sequence of Sodium-dependent dopamine transporter (Q01959 whole entry): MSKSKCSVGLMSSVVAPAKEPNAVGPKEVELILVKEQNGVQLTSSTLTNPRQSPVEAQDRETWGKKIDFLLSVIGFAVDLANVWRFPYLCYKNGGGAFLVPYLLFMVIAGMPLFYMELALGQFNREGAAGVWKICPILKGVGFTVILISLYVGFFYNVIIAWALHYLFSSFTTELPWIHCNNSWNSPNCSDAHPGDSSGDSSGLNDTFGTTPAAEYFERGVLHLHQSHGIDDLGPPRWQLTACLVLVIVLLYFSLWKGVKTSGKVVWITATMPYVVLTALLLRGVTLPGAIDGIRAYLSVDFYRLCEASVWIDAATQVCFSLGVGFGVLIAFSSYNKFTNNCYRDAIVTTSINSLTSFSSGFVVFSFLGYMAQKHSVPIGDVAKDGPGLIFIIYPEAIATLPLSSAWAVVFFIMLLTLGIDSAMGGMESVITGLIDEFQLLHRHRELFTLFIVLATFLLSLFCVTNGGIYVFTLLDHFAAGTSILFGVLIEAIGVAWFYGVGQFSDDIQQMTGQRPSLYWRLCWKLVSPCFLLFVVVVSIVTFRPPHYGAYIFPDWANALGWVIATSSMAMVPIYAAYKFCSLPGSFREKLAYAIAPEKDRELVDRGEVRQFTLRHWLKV
Sequence of Gamma-aminobutyric acid receptor subunit alpha-1 (P62813 whole entry): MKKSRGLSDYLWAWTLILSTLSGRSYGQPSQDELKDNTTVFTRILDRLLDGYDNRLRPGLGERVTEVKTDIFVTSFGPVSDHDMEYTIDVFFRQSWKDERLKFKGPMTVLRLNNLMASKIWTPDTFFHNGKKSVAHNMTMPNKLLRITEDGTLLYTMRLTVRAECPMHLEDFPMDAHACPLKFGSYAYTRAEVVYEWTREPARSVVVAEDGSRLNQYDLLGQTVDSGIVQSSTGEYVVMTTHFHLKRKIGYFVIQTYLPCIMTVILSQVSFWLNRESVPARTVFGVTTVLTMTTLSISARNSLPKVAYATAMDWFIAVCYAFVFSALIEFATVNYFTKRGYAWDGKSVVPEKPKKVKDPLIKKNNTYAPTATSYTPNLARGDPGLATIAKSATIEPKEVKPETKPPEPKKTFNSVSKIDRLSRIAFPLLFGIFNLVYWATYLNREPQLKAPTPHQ
Sequence of 5-hydroxytryptamine receptor 2B (P41595 whole entry): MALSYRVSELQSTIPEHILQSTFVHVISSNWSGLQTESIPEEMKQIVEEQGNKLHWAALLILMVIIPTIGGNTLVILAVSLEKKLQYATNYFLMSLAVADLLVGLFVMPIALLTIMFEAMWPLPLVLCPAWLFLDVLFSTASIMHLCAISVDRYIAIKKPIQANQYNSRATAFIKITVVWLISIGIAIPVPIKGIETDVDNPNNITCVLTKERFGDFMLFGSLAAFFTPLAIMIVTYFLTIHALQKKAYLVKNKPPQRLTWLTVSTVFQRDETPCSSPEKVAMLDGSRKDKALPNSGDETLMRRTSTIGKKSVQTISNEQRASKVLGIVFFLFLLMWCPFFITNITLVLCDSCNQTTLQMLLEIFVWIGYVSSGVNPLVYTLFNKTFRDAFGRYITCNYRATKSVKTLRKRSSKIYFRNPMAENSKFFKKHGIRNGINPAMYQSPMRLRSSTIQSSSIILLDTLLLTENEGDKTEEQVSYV
Sequence of Sodium-dependent noradrenaline transporter (P23975 whole entry): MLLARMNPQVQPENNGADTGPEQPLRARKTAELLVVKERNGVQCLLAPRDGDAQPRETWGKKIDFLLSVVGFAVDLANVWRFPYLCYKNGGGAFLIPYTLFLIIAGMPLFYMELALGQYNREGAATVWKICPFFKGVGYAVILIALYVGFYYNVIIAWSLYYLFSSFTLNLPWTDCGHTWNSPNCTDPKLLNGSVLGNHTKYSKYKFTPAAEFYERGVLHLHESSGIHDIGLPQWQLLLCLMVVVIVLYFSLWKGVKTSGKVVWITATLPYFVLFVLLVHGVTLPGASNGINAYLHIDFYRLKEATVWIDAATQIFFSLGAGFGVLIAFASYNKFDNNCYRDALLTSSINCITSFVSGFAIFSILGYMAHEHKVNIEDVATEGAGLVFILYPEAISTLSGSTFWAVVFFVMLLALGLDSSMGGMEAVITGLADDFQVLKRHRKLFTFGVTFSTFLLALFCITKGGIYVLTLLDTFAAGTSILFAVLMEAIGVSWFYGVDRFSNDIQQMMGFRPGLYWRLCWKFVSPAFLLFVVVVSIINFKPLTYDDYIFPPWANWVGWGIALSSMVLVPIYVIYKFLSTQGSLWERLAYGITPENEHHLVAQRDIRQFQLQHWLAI
Sequence of cGMP-inhibited 3',5'-cyclic phosphodiesterase 3A (Q14432 whole entry): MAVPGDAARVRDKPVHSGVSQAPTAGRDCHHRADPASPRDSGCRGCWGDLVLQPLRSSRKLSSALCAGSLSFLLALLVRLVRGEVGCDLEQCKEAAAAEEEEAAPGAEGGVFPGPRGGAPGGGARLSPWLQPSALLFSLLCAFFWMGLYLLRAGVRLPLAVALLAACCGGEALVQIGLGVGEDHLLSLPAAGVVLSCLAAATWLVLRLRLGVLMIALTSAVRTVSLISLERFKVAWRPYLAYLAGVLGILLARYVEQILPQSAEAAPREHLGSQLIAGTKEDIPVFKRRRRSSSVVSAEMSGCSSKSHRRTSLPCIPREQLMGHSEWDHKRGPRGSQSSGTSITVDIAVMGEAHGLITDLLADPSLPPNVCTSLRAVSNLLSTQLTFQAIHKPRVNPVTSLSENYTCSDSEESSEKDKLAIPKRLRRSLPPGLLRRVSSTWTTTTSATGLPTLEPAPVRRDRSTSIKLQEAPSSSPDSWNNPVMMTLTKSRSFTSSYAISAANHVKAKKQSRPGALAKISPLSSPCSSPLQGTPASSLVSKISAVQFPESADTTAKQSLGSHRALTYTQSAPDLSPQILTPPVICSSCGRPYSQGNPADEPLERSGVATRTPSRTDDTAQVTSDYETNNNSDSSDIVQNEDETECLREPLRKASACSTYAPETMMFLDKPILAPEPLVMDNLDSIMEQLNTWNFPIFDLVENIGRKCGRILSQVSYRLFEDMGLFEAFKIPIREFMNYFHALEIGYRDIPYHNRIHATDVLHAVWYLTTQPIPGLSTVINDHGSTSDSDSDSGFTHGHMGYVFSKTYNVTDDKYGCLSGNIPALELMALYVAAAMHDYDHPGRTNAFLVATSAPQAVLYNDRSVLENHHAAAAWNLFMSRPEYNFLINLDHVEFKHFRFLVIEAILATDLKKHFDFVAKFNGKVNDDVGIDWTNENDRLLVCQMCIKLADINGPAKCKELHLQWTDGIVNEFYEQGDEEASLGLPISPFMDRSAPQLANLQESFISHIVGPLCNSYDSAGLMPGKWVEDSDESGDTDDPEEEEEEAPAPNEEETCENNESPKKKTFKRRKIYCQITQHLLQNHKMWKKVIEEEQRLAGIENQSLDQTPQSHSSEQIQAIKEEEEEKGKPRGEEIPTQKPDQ
Sequence of Cannabinoid receptor 1 (P21554 whole entry): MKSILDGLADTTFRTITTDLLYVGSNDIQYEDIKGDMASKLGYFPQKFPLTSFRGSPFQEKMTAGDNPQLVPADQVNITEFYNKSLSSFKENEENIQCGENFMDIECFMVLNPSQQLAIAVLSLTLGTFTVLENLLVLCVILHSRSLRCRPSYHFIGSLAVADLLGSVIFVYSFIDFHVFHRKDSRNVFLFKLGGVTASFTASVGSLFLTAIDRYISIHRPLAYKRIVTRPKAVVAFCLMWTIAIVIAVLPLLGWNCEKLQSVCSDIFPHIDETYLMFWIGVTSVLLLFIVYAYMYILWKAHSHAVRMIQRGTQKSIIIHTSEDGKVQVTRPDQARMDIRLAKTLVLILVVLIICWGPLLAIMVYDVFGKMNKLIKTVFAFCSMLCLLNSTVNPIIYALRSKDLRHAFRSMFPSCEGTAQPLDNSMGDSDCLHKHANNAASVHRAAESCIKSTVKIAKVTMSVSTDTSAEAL
Sequence of Histamine H2 receptor (P25021 whole entry): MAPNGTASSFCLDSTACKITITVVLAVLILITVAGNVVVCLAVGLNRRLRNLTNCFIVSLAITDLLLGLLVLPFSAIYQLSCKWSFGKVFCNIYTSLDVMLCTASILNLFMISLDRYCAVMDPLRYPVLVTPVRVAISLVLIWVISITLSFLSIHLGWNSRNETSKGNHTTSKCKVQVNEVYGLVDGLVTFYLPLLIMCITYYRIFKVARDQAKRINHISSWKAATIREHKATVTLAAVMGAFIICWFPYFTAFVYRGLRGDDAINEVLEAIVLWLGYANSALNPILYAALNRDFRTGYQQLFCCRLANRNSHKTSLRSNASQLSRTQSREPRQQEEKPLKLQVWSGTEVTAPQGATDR
Sequence of Adenosine receptor A2a (P29274 whole entry): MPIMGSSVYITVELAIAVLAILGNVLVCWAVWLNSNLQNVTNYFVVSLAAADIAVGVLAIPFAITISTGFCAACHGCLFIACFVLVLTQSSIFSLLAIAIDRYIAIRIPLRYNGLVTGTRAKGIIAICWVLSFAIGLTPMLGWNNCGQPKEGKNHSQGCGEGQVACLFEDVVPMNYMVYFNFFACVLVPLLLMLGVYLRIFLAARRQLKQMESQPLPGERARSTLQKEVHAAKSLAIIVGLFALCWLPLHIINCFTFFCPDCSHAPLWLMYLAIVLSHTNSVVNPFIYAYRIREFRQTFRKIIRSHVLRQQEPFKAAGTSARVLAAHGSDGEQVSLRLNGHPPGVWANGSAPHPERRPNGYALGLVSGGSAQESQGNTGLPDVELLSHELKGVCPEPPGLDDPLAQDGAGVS
Sequence of Kappa-type opioid receptor (P41145 whole entry): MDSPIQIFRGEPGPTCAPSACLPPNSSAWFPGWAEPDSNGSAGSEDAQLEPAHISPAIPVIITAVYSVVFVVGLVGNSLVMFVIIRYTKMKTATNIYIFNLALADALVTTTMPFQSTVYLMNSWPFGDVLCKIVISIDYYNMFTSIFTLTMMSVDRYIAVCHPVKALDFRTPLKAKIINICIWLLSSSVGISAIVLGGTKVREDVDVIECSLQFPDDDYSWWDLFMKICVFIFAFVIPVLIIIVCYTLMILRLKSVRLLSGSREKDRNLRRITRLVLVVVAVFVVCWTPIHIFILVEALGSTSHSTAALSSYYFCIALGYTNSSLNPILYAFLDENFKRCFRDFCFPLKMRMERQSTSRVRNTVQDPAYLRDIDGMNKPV

Row | SMILES | AC50 [1] | AC50 [2] | AC50 (Histamine H2 receptor) | AC50 (Cannabinoid receptor 1) | AC50 [3] | AC50 [4] | AC50 [5] | AC50 [6] | AC50 [7] | AC50 [8] | AC50 (Adenosine receptor A2a) | AC50 [9] | AC50 [10]
1 | CO/N=C(\C(=O)N[C@@H]1C(=O)N2C(C(=O)OCOC(=O)C(C)(C)C)=C(C)CS[C@H]12)c1csc(N)n1 | > 30 µM | > 30 µM | > 30 µM | > 30 µM | > 30 µM | > 30 µM | > 30 µM | > 30 µM | > 30 µM | > 30 µM |  |  | 
2 | NS(=O)(=O)c1cc(-c2nnn[nH]2)c(NCc2cccs2)cc1Cl [AZOSEMIDE] | 19 µM | > 30 µM | > 30 µM | > 30 µM | > 30 µM | > 30 µM | > 30 µM | > 30 µM | > 30 µM | > 30 µM | > 30 µM | > 30 µM | > 30 µM
3 | O=C(Cn1ccnc1[N+](=O)[O-])NCc1ccccc1 [BENZNIDAZOLE] | > 30 µM | > 30 µM | > 30 µM | > 30 µM | 21 µM | > 30 µM | > 30 µM | > 30 µM | > 30 µM | > 30 µM | > 30 µM | > 30 µM | > 30 µM
4 | C[N+](C)(C)CC(=O)O [BETAINE] | > 30 µM | > 30 µM | > 30 µM | > 30 µM |  | > 30 µM | > 30 µM | > 30 µM | > 30 µM | > 30 µM | > 30 µM | > 30 µM | > 30 µM
5 | C[N+](C)(C)CCOC(N)=O [CARBAMOYLCHOLINE] | > 30 µM | > 10 µM | > 30 µM | > 30 µM | > 10 µM | > 10 µM |  | > 30 µM | 5.95 µM | > 10 µM | > 10 µM | > 10 µM | > 10 µM
6 | COCC1=C(C(=O)OC(C)OC(=O)OC(C)C)N2C(=O)[C@@H](NC(=O)/C(=N\OC)c3csc(N)n3)[C@H]2SC1 (stereo not given in full) [CEFPODOXIME PROXETIL] | > 30 µM | > 30 µM | > 30 µM | > 30 µM | > 30 µM | > 30 µM | > 30 µM | > 30 µM | > 30 µM | > 30 µM |  |  | 
7 | NS(=O)(=O)c1cc2c(cc1Cl)NC(CC1CCCC1)NS2(=O)=O (stereo not given) [CYCLOPENTHIAZIDE] | > 30 µM | > 30 µM | > 30 µM | > 30 µM | > 30 µM | > 30 µM | 17 µM | > 30 µM | > 30 µM | > 30 µM |  |  | 
8 | CN(C)[C@@H]1C(O)=C(C(N)=O)C(=O)[C@@]2(O)C(O)=C3C(=O)c4c(O)ccc(Cl)c4[C@@H](O)[C@H]3C[C@@H]12 [DEMECLOCYCLINE] | > 30 µM | > 10 µM | > 10 µM |  | > 10 µM | > 10 µM | > 10 µM | > 10 µM | > 10 µM | > 10 µM | > 10 µM | > 10 µM | > 10 µM
9 | NS(=O)(=O)c1cc(Cl)c(Cl)c(S(N)(=O)=O)c1 [DICHLORPHENAMIDE] | > 30 µM | > 10 µM | > 10 µM |  | > 10 µM | > 10 µM | > 10 µM | > 10 µM | > 10 µM | > 10 µM | > 10 µM | > 10 µM | > 10 µM
10 | N/N=c1/cc2c(n[nH]1)CCN(C(=O)c1ccccc1)C2 [ENDRALAZINE] | > 30 µM | > 30 µM | > 30 µM | > 30 µM | > 30 µM | > 30 µM | > 30 µM | > 30 µM | > 30 µM | > 30 µM |  |  | 
11 | CN(CCCN1c2ccccc2CCc2ccccc21)CC(=O)c1ccc(Cl)cc1 [LOFEPRAMINE] | > 30 µM | > 30 µM | > 30 µM | 3.5 µM | 4.8 µM | 17 µM | 4 µM | > 30 µM | > 30 µM |  | > 30 µM | 21 µM | 0.022 µM
12 | CN1C(=O)N(C)C2C1N(C)C(=O)N2C (stereo not given) [MEBICAR] | > 30 µM | > 30 µM | > 30 µM | > 30 µM | > 30 µM | 14 µM | > 30 µM | > 30 µM | > 30 µM | > 30 µM |  |  | 
13 | CC(=O)O[C@]1(C(C)=O)CC[C@H]2[C@@H]3C[C@H](C)C4=CC(=O)CC[C@]4(C)[C@H]3CC[C@@]21C [MEDROXYPROGESTERONE ACETATE] |  |  |  |  |  |  |  |  |  |  | > 30 µM | > 30 µM | > 30 µM
14 | Nc1ccc(/N=N/c2ccccc2)c(N)n1 [PHENAZOPYRIDINE] | 22 µM | > 30 µM | > 30 µM | > 30 µM | 3.3 µM | 3.7 µM | 3.2 µM | 24 µM |  | > 30 µM |  |  | 
15 | CN(C)CCCN1c2ccccc2Sc2ccccc21 [PROMAZINE] | 15 µM | > 10 µM | > 10 µM | > 30 µM | 1.99 µM | 0.82 µM |  | 5.7 µM | > 10 µM | > 10 µM | > 30 µM | > 10 µM | 
16 | O=C(O)CCn1c2c(c3ccccc31)C[C@H](NS(=O)(=O)c1ccc(F)cc1)CC2 [RAMATROBAN] | > 30 µM | > 10 µM | > 30 µM |  | > 10 µM | > 10 µM | > 10 µM | > 10 µM | > 10 µM | > 10 µM | > 30 µM | > 30 µM | > 30 µM
17 | O=P(O)(O)C(O)(Cc1cccnc1)P(=O)(O)O [RISEDRONIC ACID] | 7.14 µM | > 30 µM | > 10 µM | > 30 µM | > 30 µM | > 30 µM |  | > 30 µM | > 30 µM | > 30 µM | > 30 µM | > 30 µM | > 30 µM
18 | CC(=O)N[C@H]1[C@H]([C@H](O)[C@H](O)CO)OC(C(=O)O)=C[C@@H]1N=C(N)N [ZANAMIVIR] | > 30 µM | > 10 µM | > 30 µM |  | > 10 µM | > 30 µM | > 30 µM | > 30 µM | > 30 µM | > 30 µM | > 30 µM | > 30 µM | > 30 µM
